From PMC5908784, “Extracellular loops 2 and 3 of the calcitonin receptor selectively modify agonist binding and efficacy” (Biochemical Pharmacology, 2018)
Residue numbers refer to the chain shown, from its start. Where a SMILES comes first, the peptide text is derived from it. Bridges are numbered along the chain shown (N, C = ends).

Legend:
Test in all cases: IP1 accumulation
Format in all cases: cell-based
Conditions in all cases: mean ± S.E.M.; for Emax: IP1 maximal response, SEM
hCTR V293A = target: T1, hCTR V293A (Homo sapiens, UniProt P30988, V293A)
T1 construct: c-Myc (N); expressed in transfected cells
T1 sequence (P30988 25-474 V293A): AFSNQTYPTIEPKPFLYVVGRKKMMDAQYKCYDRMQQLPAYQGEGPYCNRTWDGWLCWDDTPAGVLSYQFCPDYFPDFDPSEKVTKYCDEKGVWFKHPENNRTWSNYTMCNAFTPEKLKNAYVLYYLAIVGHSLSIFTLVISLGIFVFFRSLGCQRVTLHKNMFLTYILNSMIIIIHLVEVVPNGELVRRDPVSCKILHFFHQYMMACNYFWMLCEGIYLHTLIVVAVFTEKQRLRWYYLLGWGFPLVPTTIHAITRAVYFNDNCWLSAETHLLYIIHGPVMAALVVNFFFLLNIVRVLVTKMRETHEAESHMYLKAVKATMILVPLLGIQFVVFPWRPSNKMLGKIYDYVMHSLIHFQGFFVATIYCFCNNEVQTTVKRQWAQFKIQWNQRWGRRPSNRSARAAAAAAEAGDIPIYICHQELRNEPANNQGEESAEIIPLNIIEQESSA
Experimental: (§1) Cells (2.5 × 10^4 cells/well) were plated into 96 well trays and cultured overnight. Cells were stimulated with increasing concentration of ligands for 60 min in the presence of LiCl. Samples were lysed and endogenous IP1 was measured using an IP-One HTRF® assay kit (CisBio) as specified by the manufacturer. Data were normalized to the maximal response elicited by 100 μM of ATP.
(§2) Data were corrected for radioligand occupancy using the Cheng-Prusoff equation in Prism; as such data are reported as pKi. Emax and EC50 were estimated from concentration-response curves using with a 3-parameter logistic equation in Prism (v7). These values are a composite of functional affinity, efficacy and stimulus response coupling. […] Significance was accepted at P < 0.05.

hCTR N288A = target: T2, hCTR N288A (Homo sapiens, UniProt P30988, N288A)
T2 construct: expressed in transfected cells
T2 sequence (P30988 25-474 N288A): T1 sequence (P30988 25-474 V293A) with N264A, A269V
Experimental: as §1, §2

hCTR V357A = target: T3, hCTR V357A (Homo sapiens, UniProt P30988, V357A)
T3 construct: c-Myc (N); expressed in transfected cells
T3 sequence (P30988 25-474 V357A): T1 sequence (P30988 25-474 V293A) with A269V, V333A
Experimental: as §1, §2

hCTR W361A = target: T4, hCTR W361A (Homo sapiens, UniProt P30988, W361A)
T4 construct: expressed in transfected cells
T4 sequence (P30988 25-474 W361A): T1 sequence (P30988 25-474 V293A) with A269V, W337A
Experimental: as §1, §2

hCTR Y299A = target: T5, hCTR Y299A (Homo sapiens, UniProt P30988, Y299A)
T5 construct: c-Myc (N); expressed in transfected cells
T5 sequence (P30988 25-474 Y299A): T1 sequence (P30988 25-474 V293A) with A269V, Y275A
Experimental: as §1, §2

[1] = IP1, CV1-FlpIn cells, 60 min, LiCl

Structure (SMILES)	Emax (hCTR V293A) [%]	Emax (hCTR N288A) [%]	Emax (hCTR V357A) [%]	Emax (hCTR W361A) [%]	Emax (hCTR Y299A) [%]	EC50 (hCTR V293A; [1]) [nM]	EC50 (hCTR N288A; [1]) [nM]	EC50 (hCTR V357A; [1]) [nM]	EC50 (hCTR W361A; [1]) [nM]	EC50 (hCTR Y299A; [1]) [nM]
CC(C)C[C@H](NC(=O)[C@H](CCCCN)NC(=O)CNC(=O)[C@H](CC(C)C)NC(=O)[C@@H](NC(=O)[C@@H]1CSSC[C@H](N)C(=O)N[C@@H](CO)C(=O)N[C@@H](CC(N)=O)C(=O)N[C@@H](CC(C)C)C(=O)N[C@@H](CO)C(=O)N[C@@H]([C@@H](C)O)C(=O)N1)C(C)C)C(=O)N[C@@H](CO)C(=O)N[C@@H](CCC(N)=O)C(=O)N[C@@H](CCC(=O)O)C(=O)N[C@@H](CC(C)C)C(=O)N[C@@H](Cc1c[nH]cn1)C(=O)N[C@@H](CCCCN)C(=O)N[C@@H](CC(C)C)C(=O)N[C@@H](CCC(N)=O)C(=O)N[C@H](C(=O)N[C@@H](Cc1ccc(O)cc1)C(=O)N1CCC[C@H]1C(=O)N[C@@H](CCCNC(=N)N)C(=O)N[C@H](C(=O)N[C@@H](CC(N)=O)C(=O)N[C@H](C(=O)NCC(=O)N[C@@H](CO)C(=O)NCC(=O)N[C@H](C(=O)N1CCC[C@H]1C(N)=O)[C@@H](C)O)[C@@H](C)O)[C@@H](C)O)[C@@H](C)O [sCT]	109 ± 7	119 ± 6	39 ± 3	108 ± 6	54 ± 5	–	–	–	–	–
CC[C@H](C)[C@H](NC(=O)[C@H](C)NC(=O)[C@@H](NC(=O)[C@H](CCC(N)=O)NC(=O)[C@@H]1CCCN1C(=O)[C@H](Cc1ccccc1)NC(=O)[C@@H](NC(=O)[C@H](Cc1c[nH]cn1)NC(=O)[C@H](Cc1ccccc1)NC(=O)[C@H](CCCCN)NC(=O)[C@H](CC(N)=O)NC(=O)[C@H](Cc1ccccc1)NC(=O)[C@H](CC(=O)O)NC(=O)[C@H](CCC(N)=O)NC(=O)[C@@H](NC(=O)[C@H](Cc1ccc(O)cc1)NC(=O)[C@@H](NC(=O)CNC(=O)[C@H](CC(C)C)NC(=O)[C@H](CCSC)NC(=O)[C@@H]1CSSC[C@H](N)C(=O)NCC(=O)N[C@@H](CC(N)=O)C(=O)N[C@@H](CC(C)C)C(=O)N[C@@H](CO)C(=O)N[C@@H]([C@@H](C)O)C(=O)N1)[C@@H](C)O)[C@@H](C)O)[C@@H](C)O)[C@@H](C)O)C(=O)NCC(=O)N[C@H](C(=O)NCC(=O)N[C@@H](C)C(=O)N1CCC[C@H]1C(N)=O)C(C)C [hCT]	87 ± 4	91 ± 8	50 ± 4	89 ± 9	34 ± 5	–	–	–	–	–
CSCC[C@H](NC(=O)CNC(=O)[C@H](CO)NC(=O)[C@H](Cc1ccccc1)NC(=O)[C@H](CCCNC(=N)N)NC(=O)[C@H](Cc1c[nH]cn1)NC(=O)[C@H](Cc1ccccc1)NC(=O)[C@H](CC(N)=O)NC(=O)[C@H](CC(N)=O)NC(=O)[C@H](CC(C)C)NC(=O)[C@H](CC(N)=O)NC(=O)[C@H](CCCNC(=N)N)NC(=O)[C@H](Cc1c[nH]c2ccccc12)NC(=O)[C@H](Cc1ccc(O)cc1)NC(=O)[C@H](C)NC(=O)[C@H](CO)NC(=O)[C@H](CC(C)C)NC(=O)[C@@H](NC(=O)[C@@H]1CSSC[C@H](N)C(=O)N[C@@H](CO)C(=O)N[C@@H](CC(N)=O)C(=O)N[C@@H](CC(C)C)C(=O)N[C@@H](CO)C(=O)N[C@@H]([C@@H](C)O)C(=O)N1)C(C)C)C(=O)NCC(=O)N[C@@H](Cc1ccccc1)C(=O)NCC(=O)N1CCC[C@H]1C(=O)N[C@@H](CCC(=O)O)C(=O)N[C@H](C(=O)N1CCC[C@H]1C(N)=O)[C@@H](C)O [pCT] (H-CSNLSTCVLSAYWRNLNNFHRFSGMGFGPETP-NH2; disulfide 1-7)	112 ± 10	93 ± 7	48 ± 4	80 ± 6	52 ± 3	3.24	1.91	15.5	8.32	0.417
